Measurements taken from patent US8193198B2, “Uracil compounds and a herbicide comprising the same” (Korea Research Institute of Chemical Technology, priority 2008, dated 2012).

Key:
Assay type in all cases: in vivo
Abutilon theophrasti [1] = assay: Foliar treatment herbicidal activity test; settings: 2 weeks, scale 0 to 100 (complete destruction)
Description: (§1) A compound fertilizer for horticulture (N:P:K=11:10:11) was mixed with sterilized sandy soil (pH 6.1, organic substance 1.0%, clay 21%, silt 17%, sand 52%), 1 g per each pot (350 cm^2). The soil was filled in a square plastic pot, and corn, Poaceae plants including Panicum dichotomiflorum and Digitaria ciliaris, broadleaf plants including Solanum nigrum, Aeschynomene indica, Abutilon theophrasti and cocklebur, or convolvulus rhizome were sown and covered with soil. Soil treatment was carried out by spraying a test formulation 1 day after the sowing, and foliar treatment, 8 to 12 days after the sowing. The test formulation was prepared by dissolving of a test compound in a mixture of 5 wt % of acetone and 1 wt % of an emulsifier, and diluting with water to prepare a wettable powder. 2000 L of the test formulation was sprayed per hectare. The amount of the active compound was adjusted to a desired quantity.
(§2) Following the treatment, the plants were grown for 2 weeks under a greenhouse condition (25-35° C. during the day and 20-25° C. at night, 14 hour light cycle). Herbicidal activity was evaluated in comparison to a non-treated control group according to the following standard: for weeds, 0 (no herbicidal effect) to 100 (complete destruction); and for crops 0 (harmless) to […] (complete destruction).

Aeschynomene indica [2] = assay: Foliar treatment herbicidal activity test; settings: 2 weeks, scale 0 to 100 (complete destruction)
Description: as §1, §2

Digitaria ciliaris [3] = assay: Foliar treatment herbicidal activity test; settings: 2 weeks; for pest or weed control at 16 g/ha / pest or weed control at 8 g/ha: Digitaria ciliaris, 336 h; for pest or weed control at 16 g/ha: Table 6 (III), 16 g a.i./ha
Description: as §1, §2

Echinochloa crus-galli = assay: Foliar treatment herbicidal activity test; settings: 2 weeks; for pest or weed control at 16 g/ha / pest or weed control at 8 g/ha: Echinochloa crus-galli, 336 h; for pest or weed control at 16 g/ha: Table 6 (III), 16 g a.i./ha
Description: as §1, §2

Panicum dichotomiflorum = assay: Foliar treatment herbicidal activity test; settings: 2 weeks, scale 0 to 100 (complete destruction)
Description: as §1, §2

Solanum nigrum [4] = assay: Foliar treatment herbicidal activity test; settings: 2 weeks, scale 0 to 100 (complete destruction)
Description: as §1, §2

Cocklebur = assay: Foliar treatment herbicidal activity test; settings: for Herbicidal activity, Cocklebur: foliar treatment, 8 g a.i./ha, 2 weeks
Description: as §1, §2

monocot weeds = assay: Foliar treatment herbicidal activity test (summary in text)
Description: as §1, §2

Sorghum bicolor [5] = assay: Foliar treatment herbicidal activity test; settings: Table 4 (I), 8 g a.i./ha, 2 weeks, scale 0 to 100 (complete destruction)
Description: as §1, §2

Cyperus serotinus = assay: Foliar treatment herbicidal activity test; settings: Table 4 (I), 8 g a.i./ha, 2 weeks, scale 0 to 100 (complete destruction)
Corn = assay: Soil treatment test, crop harm; settings: Table 7, 32 g a.i./ha, 2 weeks, crops scale 0 (harmless) to 10 (complete destruction)
Description: as §1, §2

Wheat = assay: Soil treatment test, crop harm; settings: Table 7, 32 g a.i./ha, 2 weeks, crops scale 0 (harmless) to 10 (complete destruction)
Abutilon theophrasti [6] = assay: Soil treatment herbicidal activity test; settings: Table 7, 32 g a.i./ha, 2 weeks, scale 0 to 100 (complete destruction)
Description: as §1, §2

Aeschynomene indica [7] = assay: Soil treatment herbicidal activity test; settings: Table 7, 32 g a.i./ha, 2 weeks, scale 0 to 100 (complete destruction)
Description: as §1, §2

Digitaria ciliaris [8] = assay: Soil treatment herbicidal activity test; settings: Table 7, 32 g a.i./ha, 2 weeks, scale 0 to 100 (complete destruction)
Description: as §1, §2

Solanum nigrum [9] = assay: Soil treatment herbicidal activity test; settings: Table 7, 32 g a.i./ha, 2 weeks, scale 0 to 100 (complete destruction)
Description: as §1, §2

Sorghum bicolor [10] = assay: Soil treatment herbicidal activity test; settings: Table 7, 32 g a.i./ha, 2 weeks, scale 0 to 100 (complete destruction)
Description: as §1, §2

[11] = scale 0 to 100 (complete destruction)
[12] = Table 3, scale 0 (no herbicidal effect) to 100 (complete destruction)
[13] = Table 3, 8 g a.i./ha, scale 0 (no herbicidal effect) to 100 (complete destruction)
[14] = Table 4 (I), scale 0 to 100 (complete destruction)
[15] = Table 4 (I), 8 g a.i./ha, scale 0 to 100 (complete destruction)
[16] = Table 5 (II), 8 g a.i./ha, scale 0 to 100 (complete destruction)

| SMILES | Herbicidal activity, Abutilon theophrasti (Abutilon theophrasti [1]; Table 6 (III), 16 g a.i./ha) | Herbicidal activity, Aeschynomene indica (Aeschynomene indica [2]; Table 6 (III), 16 g a.i./ha) | pest or weed control at 16 g/ha (Digitaria ciliaris [3]; [11]) | pest or weed control at 16 g/ha (Echinochloa crus-galli; [11]) | Herbicidal activity, Panicum dichotomiflorum (Panicum dichotomiflorum; Table 6 (III), 16 g a.i./ha) | Herbicidal activity, Solanum nigrum (Solanum nigrum [4]; Table 6 (III), 16 g a.i./ha) | Herbicidal activity against cocklebur (in words) (Cocklebur) | Herbicidal activity, Cocklebur (Cocklebur; [12]) | pest or weed control at 8 g/ha (Digitaria ciliaris [3]; [13]) | pest or weed control at 8 g/ha (Echinochloa crus-galli; [13]) | Herbicidal activity against monocot weeds (in words) (monocot weeds) | further results |
| --- | --- | --- | --- | --- | --- | --- | --- | --- | --- | --- | --- | --- |
| C=CCOC(=O)CCNC(=O)C(C)Oc1cc(-n2c(=O)cc(C(F)(F)F)n(C)c2=O)c(F)cc1Cl (centres unmarked) [Compound No. 25, 3-[{2-[2-chloro-5-(3,6-dihydro-3-methyl-2,6-dioxo-4-trifluoromethyl-1(2H)-pyrimidinyl)-4-fluorophenoxy]-1-oxopropyl}amino]propionic acid allyl ester] | 100 | 100 | 100% | 90% | 96 | 100 |  |  |  |  |  |  |
| COC(=O)CONC(=O)C(C)Oc1cc(-n2c(=O)cc(C(F)(F)F)n(C)c2=O)c(F)cc1Cl (centres unmarked) [compound 3] |  |  |  |  |  |  | imperfect herbicidal activity | 95 | 10% | 30% | very low herbicidal activity |  |
| COC(=O)CNC(=O)C(C)Oc1cc(-n2c(=O)cc(C(F)(F)F)n(C)c2=O)c(F)cc1Cl (centres unmarked) [compound 1] |  |  |  |  |  |  | imperfect herbicidal activity | 98 | 30% | 55% | very low herbicidal activity |  |
| COC(=O)CCNC(=O)C(C)Sc1cc(-n2c(=O)cc(C(F)(F)F)n(C)c2=O)c(F)cc1Cl (centres unmarked) [Compound No. 36, 3-[{2-[2-chloro-5-(3,6-dihydro-3-methyl-2,6-dioxo-4-trifluoromethyl-1(2H)-pyrimidinyl)-4-fluorophenylthio]-1-oxopropyl}amino]propionic acid methyl ester] |  |  |  |  |  |  |  |  |  |  |  | Herbicidal activity, Abutilon theophrasti (Abutilon theophrasti [1]; Table 4 (I), 8 g a.i./ha): 100; Herbicidal activity, Aeschynomene indica (Aeschynomene indica [2]; Table 4 (I), 8 g a.i./ha): 100; Herbicidal activity, Cocklebur (Cocklebur; [14]): 100; pest or weed control at 8 g/ha (Digitaria ciliaris [3]; [15]): 100%; Herbicidal activity, Sorghum bicolor (Sorghum bicolor [5]): 100; Herbicidal activity, Cyperus serotinus (Cyperus serotinus): 100; Crop harm, Corn (Corn): 0; Crop harm, Wheat (Wheat): 0; Herbicidal activity, Abutilon theophrasti (Abutilon theophrasti [6]): 100; Herbicidal activity, Aeschynomene indica (Aeschynomene indica [7]): 100; Herbicidal activity, Digitaria ciliaris (Digitaria ciliaris [8]): 100; Herbicidal activity, Solanum nigrum (Solanum nigrum [9]): 100; Herbicidal activity, Sorghum bicolor (Sorghum bicolor [10]): 100 |
| COC(=O)CCNC(=O)C(C)Oc1cc(-n2c(=O)cc(C(F)(F)F)n(C)c2=O)c(F)cc1Cl (centres unmarked) [Compound No. 1, 3-[{2-[2-chloro-5-(3,6-dihydro-3-methyl-2,6-dioxo-4-trifluoromethyl-1(2H)-pyrimidinyl)-4-fluorophenoxy]-1-oxopropyl}amino]propionic acid methyl ester] |  |  |  |  |  |  |  | 100 | 100% | 100% |  | Herbicidal activity, Abutilon theophrasti (Abutilon theophrasti [1]; Table 4 (I), 8 g a.i./ha): 100; Herbicidal activity, Abutilon theophrasti (Abutilon theophrasti [1]; Table 5 (II), 8 g a.i./ha): 100; Herbicidal activity, Aeschynomene indica (Aeschynomene indica [2]; Table 4 (I), 8 g a.i./ha): 100; Herbicidal activity, Aeschynomene indica (Aeschynomene indica [2]; Table 5 (II), 8 g a.i./ha): 100; Herbicidal activity, Cocklebur (Cocklebur; [14]): 100; Herbicidal activity, Digitaria ciliaris (Digitaria ciliaris [3]; [15]): 100; Herbicidal activity, Digitaria ciliaris (Digitaria ciliaris [3]; [16]): 100; Herbicidal activity, Echinochloa crus-galli (Echinochloa crus-galli; [16]): 100; Herbicidal activity, Panicum dichotomiflorum (Panicum dichotomiflorum; Table 5 (II), 8 g a.i./ha): 100; Herbicidal activity, Solanum nigrum (Solanum nigrum [4]; Table 5 (II), 8 g a.i./ha): 100; Herbicidal activity, Sorghum bicolor (Sorghum bicolor [5]): 97; Herbicidal activity, Cyperus serotinus (Cyperus serotinus): 100; Crop harm, Corn (Corn): 2; Crop harm, Wheat (Wheat): 3; Herbicidal activity, Abutilon theophrasti (Abutilon theophrasti [6]): 100; Herbicidal activity, Aeschynomene indica (Aeschynomene indica [7]): 100; Herbicidal activity, Digitaria ciliaris (Digitaria ciliaris [8]): 100; Herbicidal activity, Solanum nigrum (Solanum nigrum [9]): 100; Herbicidal activity, Sorghum bicolor (Sorghum bicolor [10]): 100 |
| CCCCOC(=O)CCNC(=O)C(C)Oc1cc(-n2c(=O)cc(C(F)(F)F)n(C)c2=O)c(F)cc1Cl (centres unmarked) [Compound No. 23, 3-[{2-[2-chloro-5-(3,6-dihydro-3-methyl-2,6-dioxo-4-trifluoromethyl-1(2H)-pyrimidinyl)-4-fluorophenoxy]-1-oxopropyl}amino]propionic acid n-butyl ester] | 100 | 100 | 100% | 100% | 100 | 100 |  |  |  |  |  |  |
| C#CCOC(=O)CCNC(=O)C(C)Oc1cc(-n2c(=O)cc(C(F)(F)F)n(C)c2=O)c(F)cc1Cl (centres unmarked) [Compound No. 26, 3-[{2-[2-chloro-5-(3,6-dihydro-3-methyl-2,6-dioxo-4-trifluoromethyl-1(2H)-pyrimidinyl)-4-fluorophenoxy]-1-oxopropyl}amino]propionic acid propargyl ester] | 100 | 100 | 95% | 90% | 90 | 100 |  |  |  |  |  |  |
| CCOC(=O)CCNC(=O)C(C)Oc1cc(-n2c(=O)cc(C(F)(F)F)n(C)c2=O)c(F)cc1Cl (centres unmarked) [Compound No. 24, 3-[{2-[2-chloro-5-(3,6-dihydro-3-methyl-2,6-dioxo-4-trifluoromethyl-1(2H)-pyrimidinyl)-4-fluorophenoxy]-1-oxopropyl}amino]propionic acid ethyl ester] |  |  |  |  |  |  |  |  |  |  |  | Herbicidal activity, Abutilon theophrasti (Abutilon theophrasti [1]; Table 5 (II), 8 g a.i./ha): 100; Herbicidal activity, Aeschynomene indica (Aeschynomene indica [2]; Table 5 (II), 8 g a.i./ha): 100; pest or weed control at 8 g/ha (Digitaria ciliaris [3]; [16]): 99%; pest or weed control at 8 g/ha (Echinochloa crus-galli; [16]): 98%; Herbicidal activity, Panicum dichotomiflorum (Panicum dichotomiflorum; Table 5 (II), 8 g a.i./ha): 99; Herbicidal activity, Solanum nigrum (Solanum nigrum [4]; Table 5 (II), 8 g a.i./ha): 100 |
| COC(=O)COC(=O)CCNC(=O)C(C)Oc1cc(-n2c(=O)cc(C(F)(F)F)n(C)c2=O)c(F)cc1Cl (centres unmarked) [Compound No. 22, 3-[{2-[2-chloro-5-(3,6-dihydro-3-methyl-2,6-dioxo-4-trifluoromethyl-1(2H)-pyrimidinyl)-4-fluorophenoxy]-1-oxopropyl}amino]propionyloxy acetic acid methyl ester] | 100 | 100 | 85% | 100% | 100 | 100 |  |  |  |  |  |  |
| COC(=O)C(C)NC(=O)C(C)Oc1cc(-n2c(=O)cc(C(F)(F)F)n(C)c2=O)c(F)cc1Cl (centres unmarked) [compound 2] |  |  |  |  |  |  | imperfect herbicidal activity | 70 | 25% | 65% | very low herbicidal activity |  |
